Source: patent publication US9637483B2, “Heterocyclic compound” (TAKEDA PHARMACEUTICAL COMPANY LIMITED, priority 2013, dated 2017)

Legend:
Assay type in all cases: biochemical
JAK1 = molecular target: T1, JAK1 (Homo sapiens, UniProt P23458); assay: JAK1 enzyme inhibition test (LANCE method); conditions: 1 μM test compound; for inhibition at 1 µM: read-out: JAK1 enzyme inhibitory activity (%, 1 μM)
T1 construct: purchased Invitrogen
How it was run: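 Inhibition expressed against no-enzyme wells (100% inhibition), from time-resolved fluorescence at 665 nm after Eu-anti-phosphotyrosine antibody/EDTA detection. Kinase reaction ran 1 h at room temperature, pH 7.5 HEPES buffer, ULight-JAK1 substrate and ATP diluted to 300 nM and 150 μM before addition.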

JAK2 = molecular target: T2, JAK2 (Homo sapiens, UniProt O60674); assay: JAK2 enzyme inhibition test (LANCE method); conditions: 1 μM test compound; for inhibition at 1 µM: read-out: JAK2 enzyme inhibitory activity (%, 1 μM)
T2 construct: purchased Invitrogen
T2 sequence (O60674 whole entry): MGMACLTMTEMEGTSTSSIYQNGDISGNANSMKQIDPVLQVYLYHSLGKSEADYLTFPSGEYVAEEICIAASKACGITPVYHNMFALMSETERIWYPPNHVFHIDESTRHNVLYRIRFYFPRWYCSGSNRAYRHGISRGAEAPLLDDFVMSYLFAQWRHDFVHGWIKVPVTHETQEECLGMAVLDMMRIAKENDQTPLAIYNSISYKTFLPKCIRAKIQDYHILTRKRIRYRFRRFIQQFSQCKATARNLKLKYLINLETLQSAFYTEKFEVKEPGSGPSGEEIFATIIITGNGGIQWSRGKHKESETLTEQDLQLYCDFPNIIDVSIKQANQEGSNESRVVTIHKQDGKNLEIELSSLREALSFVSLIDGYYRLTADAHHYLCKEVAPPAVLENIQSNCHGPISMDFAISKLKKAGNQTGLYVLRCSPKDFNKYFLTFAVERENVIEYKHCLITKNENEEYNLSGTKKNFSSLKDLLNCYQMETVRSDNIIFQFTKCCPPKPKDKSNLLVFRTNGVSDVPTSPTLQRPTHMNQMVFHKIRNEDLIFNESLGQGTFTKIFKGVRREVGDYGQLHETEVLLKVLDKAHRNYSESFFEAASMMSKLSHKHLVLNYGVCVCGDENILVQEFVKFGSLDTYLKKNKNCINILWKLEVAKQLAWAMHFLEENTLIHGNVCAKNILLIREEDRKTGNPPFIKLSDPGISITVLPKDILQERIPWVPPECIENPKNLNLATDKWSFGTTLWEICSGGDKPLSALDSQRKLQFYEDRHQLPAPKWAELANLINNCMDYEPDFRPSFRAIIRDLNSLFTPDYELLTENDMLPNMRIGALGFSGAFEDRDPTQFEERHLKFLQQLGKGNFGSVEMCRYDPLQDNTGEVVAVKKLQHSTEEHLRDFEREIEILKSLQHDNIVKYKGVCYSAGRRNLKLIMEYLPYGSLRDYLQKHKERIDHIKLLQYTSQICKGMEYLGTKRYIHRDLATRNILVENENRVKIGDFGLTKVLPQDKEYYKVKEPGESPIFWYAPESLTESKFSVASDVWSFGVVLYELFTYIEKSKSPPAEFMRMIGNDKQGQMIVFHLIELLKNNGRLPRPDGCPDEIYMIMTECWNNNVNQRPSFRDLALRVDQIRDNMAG
How it was run: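 TR-FRET (LANCE) read-out, ex 340/em 665 nm with 100 μs delay, after 1 hr room-temperature detection with europium anti-phosphotyrosine antibody and 20 mM EDTA. The preceding 1 hr kinase reaction combined JAK2, ULight-JAK1 substrate and ATP, added as 6 ng/mL, 300 nM and 45 μM solutions; enzyme-free wells defined 100% inhibition.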

JAK3 = molecular target: T3, JAK3 (Homo sapiens, UniProt P52333); assay: JAK3 enzyme inhibition test (LANCE method); conditions: 1 μM test compound; for inhibition at 1 µM: read-out: JAK3 enzyme inhibitory activity (%, 1 μM)
T3 construct: purchased Invitrogen
T3 sequence (P52333 1-1124): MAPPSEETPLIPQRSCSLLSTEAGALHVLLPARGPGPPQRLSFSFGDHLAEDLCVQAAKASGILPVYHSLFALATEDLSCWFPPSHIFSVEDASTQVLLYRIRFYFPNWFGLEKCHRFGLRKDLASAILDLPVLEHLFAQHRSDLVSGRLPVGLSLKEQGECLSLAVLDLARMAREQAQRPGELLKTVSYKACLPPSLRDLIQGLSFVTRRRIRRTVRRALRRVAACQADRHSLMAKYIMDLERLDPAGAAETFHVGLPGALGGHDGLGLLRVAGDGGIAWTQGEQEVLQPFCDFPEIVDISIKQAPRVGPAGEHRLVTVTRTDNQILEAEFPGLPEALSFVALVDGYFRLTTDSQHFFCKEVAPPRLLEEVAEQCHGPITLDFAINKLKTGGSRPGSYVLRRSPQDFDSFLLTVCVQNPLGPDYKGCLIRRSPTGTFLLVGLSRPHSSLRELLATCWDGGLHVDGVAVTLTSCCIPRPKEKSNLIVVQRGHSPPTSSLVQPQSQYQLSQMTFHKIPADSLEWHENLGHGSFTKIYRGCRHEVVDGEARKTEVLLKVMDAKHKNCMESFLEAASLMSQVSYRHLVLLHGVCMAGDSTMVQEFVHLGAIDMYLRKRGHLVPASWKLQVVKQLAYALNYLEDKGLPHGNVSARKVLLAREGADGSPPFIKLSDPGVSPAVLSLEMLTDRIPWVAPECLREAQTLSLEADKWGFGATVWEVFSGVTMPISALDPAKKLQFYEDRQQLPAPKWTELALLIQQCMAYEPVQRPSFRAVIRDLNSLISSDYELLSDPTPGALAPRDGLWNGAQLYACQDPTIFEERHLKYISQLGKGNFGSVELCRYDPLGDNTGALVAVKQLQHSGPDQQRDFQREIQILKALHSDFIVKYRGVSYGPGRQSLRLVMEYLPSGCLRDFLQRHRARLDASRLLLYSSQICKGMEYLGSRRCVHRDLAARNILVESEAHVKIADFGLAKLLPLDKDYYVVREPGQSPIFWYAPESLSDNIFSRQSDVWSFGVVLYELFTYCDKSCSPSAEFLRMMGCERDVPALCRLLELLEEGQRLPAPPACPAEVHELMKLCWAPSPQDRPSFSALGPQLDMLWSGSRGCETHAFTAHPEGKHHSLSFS
How it was run: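 TR-FRET (LANCE) read: 1 h room-temperature reaction, EDTA quench, Eu-anti-phosphotyrosine antibody, emission 665 nm after 340 nm excitation. Added solutions held 12 ng/mL JAK3, 300 nM ULight-JAK1 substrate and 15 μM ATP (pH 7.5 HEPES). Activity expressed against no-enzyme wells defined as full inhibition.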

TYK2 = molecular target: T4, TYK2 (Homo sapiens, UniProt P29597); assay: TYK2 enzyme inhibition test (LANCE method); conditions: 1 μM test compound; for inhibition at 1 µM: read-out: TYK2 enzyme inhibitory activity (%, 1 μM)
T4 construct: purchased Invitrogen
T4 sequence (P29597 whole entry): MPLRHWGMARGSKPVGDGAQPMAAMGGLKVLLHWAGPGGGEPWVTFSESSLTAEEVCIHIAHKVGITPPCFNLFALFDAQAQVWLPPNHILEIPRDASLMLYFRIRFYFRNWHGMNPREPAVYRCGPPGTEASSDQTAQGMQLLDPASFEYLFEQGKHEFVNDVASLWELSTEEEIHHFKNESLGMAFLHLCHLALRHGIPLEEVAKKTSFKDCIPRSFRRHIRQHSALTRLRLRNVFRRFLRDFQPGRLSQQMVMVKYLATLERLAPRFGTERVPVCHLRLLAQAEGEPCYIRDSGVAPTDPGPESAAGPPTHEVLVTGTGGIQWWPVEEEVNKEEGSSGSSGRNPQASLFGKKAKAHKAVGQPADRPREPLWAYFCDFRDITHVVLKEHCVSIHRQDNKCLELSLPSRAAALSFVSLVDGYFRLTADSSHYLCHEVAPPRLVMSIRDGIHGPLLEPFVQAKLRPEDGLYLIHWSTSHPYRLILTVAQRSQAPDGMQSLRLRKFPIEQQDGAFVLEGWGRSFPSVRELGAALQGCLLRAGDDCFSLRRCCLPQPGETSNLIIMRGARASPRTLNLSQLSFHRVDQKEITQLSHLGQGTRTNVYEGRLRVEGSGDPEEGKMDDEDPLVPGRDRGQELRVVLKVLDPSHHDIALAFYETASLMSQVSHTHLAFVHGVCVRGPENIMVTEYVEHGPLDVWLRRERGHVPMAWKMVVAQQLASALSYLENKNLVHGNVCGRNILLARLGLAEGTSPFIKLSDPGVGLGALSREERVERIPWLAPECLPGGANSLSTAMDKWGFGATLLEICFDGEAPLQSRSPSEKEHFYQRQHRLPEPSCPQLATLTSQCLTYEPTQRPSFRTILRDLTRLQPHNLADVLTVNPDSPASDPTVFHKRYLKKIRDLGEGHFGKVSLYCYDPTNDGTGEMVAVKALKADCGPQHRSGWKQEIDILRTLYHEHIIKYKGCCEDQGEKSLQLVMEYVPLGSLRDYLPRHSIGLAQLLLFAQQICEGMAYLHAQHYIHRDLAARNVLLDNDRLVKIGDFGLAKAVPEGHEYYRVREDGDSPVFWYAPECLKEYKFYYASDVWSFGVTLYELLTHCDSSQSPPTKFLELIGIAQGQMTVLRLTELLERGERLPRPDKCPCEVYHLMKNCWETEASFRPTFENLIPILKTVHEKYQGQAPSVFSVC
How it was run: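 TR-FRET (LANCE) readout: after 1 h room-temperature kinase reaction, EDTA plus 4 nM Eu-labelled anti-phosphotyrosine antibody added, signal at 665 nm (340 nm excitation). Reaction combined TYK2, ULight-JAK1 substrate and ATP, prepared at 375 ng/mL, 300 nM and 30 μM before addition, in pH 7.5 HEPES/MgCl2 buffer; enzyme-free wells define full inhibition.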

T1 sequence (P23458 whole entry): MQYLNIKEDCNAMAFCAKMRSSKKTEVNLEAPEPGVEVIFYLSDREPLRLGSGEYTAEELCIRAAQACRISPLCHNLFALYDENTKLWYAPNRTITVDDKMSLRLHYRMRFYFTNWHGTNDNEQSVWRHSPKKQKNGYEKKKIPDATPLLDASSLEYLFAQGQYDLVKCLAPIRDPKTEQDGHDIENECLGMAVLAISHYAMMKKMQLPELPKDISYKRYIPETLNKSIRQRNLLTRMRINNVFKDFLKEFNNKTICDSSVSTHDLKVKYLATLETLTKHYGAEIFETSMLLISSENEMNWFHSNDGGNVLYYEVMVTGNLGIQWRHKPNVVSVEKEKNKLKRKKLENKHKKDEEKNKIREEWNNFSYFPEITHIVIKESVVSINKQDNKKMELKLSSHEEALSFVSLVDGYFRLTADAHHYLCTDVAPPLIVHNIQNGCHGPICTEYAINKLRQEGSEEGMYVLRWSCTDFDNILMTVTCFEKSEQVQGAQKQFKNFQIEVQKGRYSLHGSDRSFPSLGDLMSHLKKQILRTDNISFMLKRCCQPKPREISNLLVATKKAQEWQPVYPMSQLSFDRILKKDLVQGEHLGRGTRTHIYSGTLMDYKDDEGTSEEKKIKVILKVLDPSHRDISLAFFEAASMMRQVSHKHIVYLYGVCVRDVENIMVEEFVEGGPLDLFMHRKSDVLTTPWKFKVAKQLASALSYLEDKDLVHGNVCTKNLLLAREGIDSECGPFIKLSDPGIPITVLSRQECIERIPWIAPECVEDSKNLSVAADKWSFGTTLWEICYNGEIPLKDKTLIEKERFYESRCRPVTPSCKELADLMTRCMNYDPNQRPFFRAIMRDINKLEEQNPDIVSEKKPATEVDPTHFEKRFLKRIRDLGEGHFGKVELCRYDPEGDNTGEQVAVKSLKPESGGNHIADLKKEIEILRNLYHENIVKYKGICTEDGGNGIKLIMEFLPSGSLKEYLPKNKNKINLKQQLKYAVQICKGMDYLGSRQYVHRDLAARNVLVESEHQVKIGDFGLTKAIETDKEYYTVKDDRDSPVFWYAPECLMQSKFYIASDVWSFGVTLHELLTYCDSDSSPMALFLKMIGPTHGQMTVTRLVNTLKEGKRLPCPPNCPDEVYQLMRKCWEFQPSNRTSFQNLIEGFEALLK

| Compound | inhibition at 1 µM (JAK1) | inhibition at 1 µM (JAK2) | inhibition at 1 µM (JAK3) | inhibition at 1 µM (TYK2) | JAK1 enzyme inhibitory activity (%, 1 μM) (JAK1) | JAK2 enzyme inhibitory activity (%, 1 μM) (JAK2) | JAK3 enzyme inhibitory activity (%, 1 μM) (JAK3) | TYK2 enzyme inhibitory activity (%, 1 μM) (TYK2; 1 µM) | JAK2 enzyme inhibitory activity (%, 1 μM) (JAK2; 1 µM) | JAK3 enzyme inhibitory activity (%, 1 μM) (JAK3; 1 µM) | TYK2 enzyme inhibitory activity (%, 1 μM) (TYK2) |
| --- | --- | --- | --- | --- | --- | --- | --- | --- | --- | --- | --- |
| CC(C)[C@H](C)n1cc(-c2cc(C(C)(C)C#N)n(C)n2)c2[nH]nc(N)c2c1=O [Example 57, 2-(3-(3-amino-5-((2S)-3-methylbutan-2-yl)-4-oxo-4,5-dihydro-1H-pyrazolo[4,3-c]pyridin-7-yl)-1-methyl-1H-pyrazol-5-yl)-2-methylpropanenitrile] | 99% | 99% | 99% | 99% |  |  |  |  |  |  |  |
| CC(C)[C@H](C)n1cc(-c2cc(C3CCOCC3)n(C)n2)c2[nH]nc(N)c2c1=O [Example 58] | 97% | 99% | 100% | 100% |  |  |  |  |  |  |  |
| CC1CN(c2cc(-c3cn([C@@H](C)C(C)C)c(=O)c4c(N)n[nH]c34)nn2C)CCO1 (stereo partly drawn) [Example 59, 3-amino-5-((2S)-3-methylbutan-2-yl)-7-(1-methyl-5-(2-methylmorpholin-4-yl)-1H-pyrazol-3-yl)-1,5-dihydro-4H-pyrazolo[4,3-c]pyridin-4-one] |  |  |  |  | 97% | 98% | 99% | 100% |  |  |  |
| CC1CN(c2cc(-c3cn([C@@H](C)C(C)C)c(=O)c4c(N)n[nH]c34)nn2C)CCO1 (stereo partly drawn) [Example 60, 3-amino-5-((2S)-3-methylbutan-2-yl)-7-(1-methyl-5-(2-methylmorpholin-4-yl)-1H-pyrazol-3-yl)-1,5-dihydro-4H-pyrazolo[4,3-c]pyridin-4-one] |  |  |  |  | 96% | 98% | 99% | 99% |  |  |  |
| CC(C)[C@H](C)n1cc(-c2cc(N3CCN4CCCC4C3)n(C)n2)c2[nH]nc(N)c2c1=O (stereo partly drawn) [Example 61, 3-amino-7-(5-(hexahydropyrrolo[1,2-a]pyrazin-2 (H)-yl)-1-methyl-1H-pyrazol-3-yl)-5-((2S)-3-methylbutan-2-yl)-1,5-dihydro-4H-pyrazolo[4,3-c]pyridin-4-one] |  |  |  |  | 97% |  |  |  | 99% | 100% | 99% |
| CC(C)[C@H](C)n1cc(-c2cc(N3CCN4CCCC4C3)n(C)n2)c2[nH]nc(N)c2c1=O (stereo partly drawn) [Example 62, 3-amino-7-(5-(hexahydropyrrolo[1,2-a]pyrazin-2 (H)-yl)-1-methyl-1H-pyrazol-3-yl)-5-((2S)-3-methylbutan-2-yl)-1,5-dihydro-4H-pyrazolo[4,3-c]pyridin-4-one] |  |  |  |  | 97% |  |  |  | 99% | 99% | 99% |
| CC(C)[C@H](C)n1cc(-c2cc(N3CCC(C)(O)C3)n(C)n2)c2[nH]nc(N)c2c1=O (stereo partly drawn) [Example 63, 3-amino-7-(5-(3-hydroxy-3-methylpyrrolidin-1-yl)-1-methyl-1H-pyrazol-3-yl)-5-((2S)-3-methylbutan-2-yl)-1,5-dihydro-4H-pyrazolo[4,3-c]pyridin-4-one] |  |  |  |  | 96% |  |  | 99% | 99% | 100% |  |
| CC(C)[C@H](C)n1cc(-c2cc(N3CCC(C)(O)C3)n(C)n2)c2[nH]nc(N)c2c1=O (stereo partly drawn) [Example 64, 3-amino-7-(5-(3-hydroxy-3-methylpyrrolidin-1-yl)-1-methyl-1H-pyrazol-3-yl)-5-((2S)-3-methylbutan-2-yl)-1,5-dihydro-4H-pyrazolo[4,3-c]pyridin-4-one] |  |  |  |  | 97% |  |  | 100% | 99% | 99% |  |
| CNC(=O)c1cc(-c2cn(-c3c(F)cccc3F)c(=O)c3c(N)n[nH]c23)nn1C [Example 65, 3-(3-amino-5-(2,6-difluorophenyl)-4-oxo-4,5-dihydro-1H-pyrazolo[4,3-c]pyridin-7-yl)-N,1-dimethyl-1H-pyrazole-5-carboxamide] | 99% | 98% | 100% | 100% |  |  |  |  |  |  |  |
| Cn1nc(-c2cn(-c3c(F)cccc3F)c(=O)c3c(N)n[nH]c23)cc1C(=O)N1CCOCC1 [Example 66, 3-amino-5-(2,6-difluorophenyl)-7-(1-methyl-5-(morpholin-4-ylcarbonyl)-1H-pyrazol-3-yl)-1,5-dihydro-4H-pyrazolo[4,3-c]pyridin-4-one] | 99% | 99% | 100% | 100% |  |  |  |  |  |  |  |
| Cn1nc(-c2cn(-c3c(F)cccc3C#N)c(=O)c3c(N)n[nH]c23)cc1N1CCOCC1 [Example 67, 2-(3-amino-7-(1-methyl-5-(morpholin-4-yl)-1H-pyrazol-3-yl)-4-oxo-1,4-dihydro-5H-pyrazolo[4,3-c]pyridin-5-yl)-3-fluorobenzonitrile] | 98% | 97% | 99% | 100% |  |  |  |  |  |  |  |
| Cn1nc(-c2cn(-c3c(F)cccc3C#N)c(=O)c3c(N)n[nH]c23)cc1C1=CCOCC1 [Example 68, 2-(3-amino-7-(5-(3,6-dihydro-2H-pyran-4-yl)-1-methyl-1H-pyrazol-3-yl)-4-oxo-1,4-dihydro-5H-pyrazolo[4,3-c]pyridin-5-yl)-3-fluorobenzonitrile] | 99% | 97% | 99% | 99% |  |  |  |  |  |  |  |
| Cn1nc(-c2cn(-c3c(F)cccc3C#N)c(=O)c3c(N)n[nH]c23)cc1C1CCOCC1 [Example 69, 2-(3-amino-7-(1-methyl-5-(tetrahydro-2H-pyran-4-yl)-1H-pyrazol-3-yl)-4-oxo-1,4-dihydro-5H-pyrazolo[4,3-c]pyridin-5-yl)-3-fluorobenzonitrile] | 97% | 96% | 98% | 99% |  |  |  |  |  |  |  |
| CN1CCN(c2cc(-c3cn(-c4c(F)cccc4C#N)c(=O)c4c(N)n[nH]c34)nn2C)CC1 [Example 70, 2-(3-amino-7-(1-methyl-5-(4-methylpiperazin-1-yl)-1H-pyrazol-3-yl)-4-oxo-1,4-dihydro-5H-pyrazolo[4,3-c]pyridin-5-yl)-3-fluorobenzonitrile] | 97% | 96% | 99% | 100% |  |  |  |  |  |  |  |
| Cn1nc(-c2cn(-c3c(F)cccc3C#N)c(=O)c3c(N)n[nH]c23)cc1C(C)(C)O [Example 71, 2-(3-amino-7-(5-(2-hydroxypropan-2-yl)-1-methyl-1H-pyrazol-3-yl)-4-oxo-1,4-dihydro-5H-pyrazolo[4,3-c]pyridin-5-yl)-3-fluorobenzonitrile] | 98% | 97% | 98% | 99% |  |  |  |  |  |  |  |
